Patent US9187477B2, “Azabenzimidazole derivatives” (Boehringer Ingelheim International GmbH, priority 2013, dated 2015)
pEC50: −log10 of the molar value.

Key:
[1] = target: AMPK complex 1 (containing alpha1beta1gamma1) (Homo sapiens (Human), UniProt Q13131+Q9Y478); assay: in vitro AMPK activation assay (ADP-Glo Kinase Assay); assay type: biochemical; conditions: AMPK alpha1beta1gamma1, ATP 30 μM, peptide 1 μM, 60 min, room temperature
Excerpt: Activated AMPK complex 1 (containing alpha1beta1gamma1) was obtained from baculovirus expression system. The gene encoding AMPK alpha1 was cloned into the pACG2T vector (BD Biosciences) to obtain a N-terminal Glutathion S transferase (GST)-fusion protein. The genes encoding AMPK beta1 and gamma1 were cloned into the p2Bac dual multiple cloning site vector (Invitrogen) with beta1 under the control of the p10 promoter and gamma1 under the control of the PH promoter. The transfer vectors containing AMPK were co-transfected individually with AcPNV BacMagic-3 DNA (EMD Millipore) in Sf9 cells and the recombinant baculoviruses were harvested after 5 days, followed by 3 rounds of amplification of the virus stock in Sf9 cells. AMPK (alpha1beta1gamma1) was expressed in High Five 5 cells by co-infection of recombinant alpha1 virus and recombinant beta1/gamma1 virus for 72 h at 27° C. Cells were harvested by centrifugation and lysed by 3 freeze/thaw cycles in PBS with 10% glycerol and protease inhibitor cocktail (Roche). After centrifugation AMPK a1b1g1 in the supernatant was captured by immobilized glutathione (GE Healthcare), impurities were washed away with PBS and AMPK alpha1beta1gamma1 was eluted with PBS containing 20 mM reduced gluthathione. The protein buffer was then exchanged to PBS with 10% glycerol and protein concentration was determined by UV absorbance.
The white 384-well Optiplates (cat. no. 6007299) were purchased from PerkinElmer. The V9101 ADP-Glo Kinase Assay and ultra pure ATP (V915A) was purchased from Promega. The substrate for AMPK (NH2-HMRSAMSGLHLVKRR_CONH2) was purchased from Upstate (12-355).
Compounds were tested in either serial dilutions or single dose concentrations. The serial compound dilutions were prepared in 100% DMSO automatically. The final DMSO concentration in the assay was 0.1%.
The Compound Stock Solutions were 10 mM in 100% DMSO. The compounds were solubilised at room temperature.
In the 384-well plates 1.25 ul of test compound in assay buffer was mixed with 1.25 ul of AMPK and 1.25 μl of the peptide (final concentration of 1 μM) and 1.25 μl of ATP (final concentration of 30 μM), both dissolved in assay buffer. This step was followed by an incubation time of 60 min. Then 5 μl of ADP Glo Reagent was added. This was followed by 40 min of incubation. Then 10 μl of Kinase Detection Reagent was admixed. The plates were sealed and after an incubation period of 30 min, the luminescence signal was measured in an Envision reader. All incubation steps were accomplished at room temperature.
Each assay microtiter plate contained wells with vehicle controls instead of compound (0.1% DMSO in water) as reference for the low signal (100% CTL, low signal), and wells with serial dilutions of AMP (final 30 μM) as reference for high signals.
The luminescence signal generated was proportional to the ADP concentration produced and was correlated with AMPK activity. The analysis of the data was performed by the calculation of the percentage of ATP consumption of AMPK in the presence of the test compound compared to the consumption of ATP in the presence of AMPK without compound. (RLU(sample)/RLU(low control))*100[RLU=relative luminescence units]
An activator of the AMPK enzyme gave values above 100% CTL.
EC50 values based on dose response curves are calculated with the XIFIT software using the 4 Parameter Logistic Model or Sigmoidal Dose-Response Model.

[2] = Metabolic stability: metabolic degradation with pooled human liver microsomes; assay type: in vitro ADME; conditions: for c (control) (metabolic stability), remaining test compound after NADPH independent incubation: incubation without NADPH, after 2 hours, human liver microsomes; for t1/2 INVITRO: pooled human liver microsomes 1 mg/ml, 37° C., test compound 1 μM, NADPH 1 mM
Protocol: The metabolic degradation of the test compound is assayed at 37° C. with pooled human liver microsomes. The final incubation volume of 100 μl per time point contains TRIS buffer pH 7.6 at room temperature (0.1 M), magnesium chloride (5 mM), microsomal protein (1 mg/ml) and the test compound at a final concentration of 1 μM.
Following a short preincubation period at 37° C., the reactions were initiated by addition of beta-nicotinamide adenine dinucleotide phosphate, reduced form (NADPH, 1 mM) and terminated by transferring an aliquot into solvent after different time points.
Additionally, the NADPH-independent degradation was monitored in incubations without NADPH, terminated at 2 hour time point. The [%] remaining test compound after NADPH independent incubation is reflected by the parameter c (control) (metabolic stability). A c (control) (metabolic stability) value around 100% excludes cofactor independent activities (e.g. from esterases).
The quenched incubations are pelleted by centrifugation (10000 g, 5 min).
An aliquot of the supernatant is assayed by LC-MS/MS for the amount of parent compound. The half-life (t1/2 INVITRO) is determined by the slope of the semilogarithmic plot of the concentration-time profile.

AMPK complex 1 (containing alpha1beta1gamma1), sequence (Q13131 whole entry, the tested form may be a part): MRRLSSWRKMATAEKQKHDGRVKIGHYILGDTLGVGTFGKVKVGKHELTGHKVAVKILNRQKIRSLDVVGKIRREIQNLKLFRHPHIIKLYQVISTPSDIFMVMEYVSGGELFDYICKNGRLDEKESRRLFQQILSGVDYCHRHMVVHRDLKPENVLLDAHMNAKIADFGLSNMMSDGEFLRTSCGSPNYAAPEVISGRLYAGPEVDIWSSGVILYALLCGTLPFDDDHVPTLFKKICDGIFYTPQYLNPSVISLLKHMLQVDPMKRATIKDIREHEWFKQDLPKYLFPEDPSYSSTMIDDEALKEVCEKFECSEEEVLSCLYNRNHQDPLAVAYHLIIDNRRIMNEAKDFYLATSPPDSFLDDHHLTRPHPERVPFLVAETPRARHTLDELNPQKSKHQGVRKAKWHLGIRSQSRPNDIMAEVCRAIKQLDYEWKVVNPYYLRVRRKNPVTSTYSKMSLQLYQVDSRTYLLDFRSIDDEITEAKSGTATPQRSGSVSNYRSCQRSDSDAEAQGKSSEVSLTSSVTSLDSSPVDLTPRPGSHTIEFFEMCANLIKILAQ
AMPK complex 1 (containing alpha1beta1gamma1), sequence (Q9Y478 whole entry, the tested form may be a part): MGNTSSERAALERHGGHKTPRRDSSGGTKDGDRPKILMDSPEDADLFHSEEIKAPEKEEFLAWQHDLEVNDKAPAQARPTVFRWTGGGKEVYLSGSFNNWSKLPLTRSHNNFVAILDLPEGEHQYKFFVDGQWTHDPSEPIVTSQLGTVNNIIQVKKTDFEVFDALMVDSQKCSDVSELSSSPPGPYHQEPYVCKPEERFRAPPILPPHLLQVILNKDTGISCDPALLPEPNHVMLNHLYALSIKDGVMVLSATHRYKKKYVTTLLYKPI
AMPK complex 1 (containing alpha1beta1gamma1), sequence (P54619 whole entry partner, the tested form may be a part): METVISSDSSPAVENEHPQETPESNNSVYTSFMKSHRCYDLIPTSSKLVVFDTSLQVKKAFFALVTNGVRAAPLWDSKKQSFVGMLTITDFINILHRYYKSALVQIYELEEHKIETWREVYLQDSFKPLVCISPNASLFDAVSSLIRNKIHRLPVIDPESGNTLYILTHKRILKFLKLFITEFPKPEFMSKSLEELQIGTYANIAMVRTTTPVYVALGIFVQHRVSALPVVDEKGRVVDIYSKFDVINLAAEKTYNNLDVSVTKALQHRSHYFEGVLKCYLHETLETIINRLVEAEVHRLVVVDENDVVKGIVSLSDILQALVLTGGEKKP

c (control) (metabolic stability), remaining test compound after NADPH independent incubation [2] [%] | t1/2 INVITRO [2] [h] | SMILES | pEC50 [1]
100 | >2.17 | O=C(O[C@H]1CC[C@H](c2ccc(-c3nc4[nH]c(O[C@@H]5CO[C@H]6[C@@H]5OC[C@H]6O)nc4cc3Cl)cc2)CC1)N1CCCC1 [Example 9, (trans)-4-(4-(6-Chloro-2-((3R,3aR,6R,6aR)-6-hydroxyhexahydrofuro[3,2-b]furan-3-yloxy)-3H-imidazo[4,5-b]pyridin-5-yl)phenyl)cyclohexyl pyrrolidine-1-carboxylate] | 7.77
106 | 1.83 | CC(C)NC(=O)O[C@H]1CC[C@@H](c2ccc(-c3nc4[nH]c(O[C@@H]5CO[C@H]6[C@@H]5OC[C@H]6O)nc4cc3Cl)cc2)CC1 [Example 11, (cis)-4-(4-(6-Chloro-2-((3R,3aR,6R,6aR)-6-hydroxyhexahydrofuro[3,2-b]furan-3-yloxy)-3H-imidazo[4,5-b]pyridin-5-yl)phenyl)cyclohexyl isopropylcarbamate] | 7.46
